The test has as its system P388 leukemia ip, CD2F1 mice, survival T/C. The experiment in a line: NCI In Vivo Anticancer Drug Screen. Data for tumor model P388 Leukemia (intraperitoneal) in CD2F1 (CDF1) mice. The conditions noted are these: endpoint: median survival time, higher = longer survival. The procedure, abridged:
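Mice carrying the transplanted tumor received test compound or vehicle. Survival was recorded in each group, and the value is the treated-group measurement divided by that of the vehicle-treated control group.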

[1] abbreviates: dose: 12.5 mg/kg/injection, schedule: Q01DX009 (ip), vehicle: saline.
Setting [2] is: dose: 25.0 mg/kg/injection, schedule: Q01DX009 (ip), vehicle: saline.
[3] abbreviates: dose: 50.0 mg/kg/injection, schedule: Q01DX009 (ip), vehicle: saline.
[4] abbreviates: dose: 60.0 mg/kg/injection, schedule: Q01DX005 (ip), vehicle: saline.
The mark [5] stands for this setting: dose: 120.0 mg/kg/injection, schedule: Q01DX005 (ip), vehicle: saline.
Where [6] appears, read: dose: 50.0 mg/kg/injection, schedule: Q01DX009 (ip), vehicle: saline with Tween-80.
Where [7] appears, read: dose: 100.0 mg/kg/injection, schedule: Q01DX009 (ip), vehicle: saline with Tween-80.
[8] abbreviates: dose: 200.0 mg/kg/injection, schedule: Q01DX009 (ip), vehicle: saline with Tween-80.
Where [9] appears, read: dose: 50.0 mg/kg/injection, schedule: Q01DX005 (ip), vehicle: saline with Tween-80.
[10] abbreviates: dose: 100.0 mg/kg/injection, schedule: Q01DX005 (ip), vehicle: saline with Tween-80.
Where [11] appears, read: dose: 200.0 mg/kg/injection, schedule: Q01DX005 (ip), vehicle: saline with Tween-80.

Values joined by “and” are separate entries in the source; they are usually repeats but may differ in a detail not shown here. Equal values may be shown once. Toxic doses and inconclusive results are not listed.

For the compound `CCC[CH2][Sn]([CH3])([CH2]CC[N+](C)(C)C)[O]C(C)=O` (centres undefined), the T/C is 105 % of control under setting [1]; 106 % of control under setting [2]; 100 % of control and 115 % of control under setting [3].
As to `CSc1ncc(/C(C)=N\N=C(N)N)c(C)n1`, the T/C is, setting by setting: (dose: 15.0 mg/kg/injection, schedule: Q01DX005 (ip), vehicle: saline) 103 % of control and 97 % of control; (dose: 30.0 mg/kg/injection, schedule: Q01DX005 (ip), vehicle: saline) 93 % of control and 98 % of control; under setting [4], 94 % of control and 97 % of control; under setting [5], 99 % of control.
For the compound `CC(OP(=O)(O)O)C(N)C(=O)O` (centres undefined), the T/C was 97 % of control (dose: 50.0 mg/kg/injection, schedule: Q01DX005 (ip), vehicle: saline); 93 % of control (dose: 100.0 mg/kg/injection, schedule: Q01DX005 (ip), vehicle: saline); 98 % of control (dose: 200.0 mg/kg/injection, schedule: Q01DX005 (ip), vehicle: saline).
In the case of `CNC(=O)N(C)C1OC(CO)C(O)C1O` (centres undefined), the T/C was 113 % of control (dose: 100.0 mg/kg/injection, schedule: Q04DX003 (ip), vehicle: water); 119 % of control (dose: 200.0 mg/kg/injection, schedule: Q04DX003 (ip), vehicle: water); 119 % of control (dose: 400.0 mg/kg/injection, schedule: Q04DX003 (ip), vehicle: water).
Consider `O=C1OCCSCCOCCSCCOC(=O)c2cncc1c2`, for which the T/C runs as follows: (dose: 100.0 mg/kg/injection, schedule: Q01DX001 (ip), vehicle: Klucel (hydroxypropylcellulose) (HPC)) 99 % of control; (dose: 200.0 mg/kg/injection, schedule: Q01DX001 (ip), vehicle: Klucel (hydroxypropylcellulose) (HPC)) 113 % of control; (dose: 400.0 mg/kg/injection, schedule: Q01DX001 (ip), vehicle: Klucel (hydroxypropylcellulose) (HPC)) 109 % of control.
As for `COCCCn1nnc2ccccc2c1=O`, the T/C was 105 % of control (dose: 25.0 mg/kg/injection, schedule: Q01DX009 (ip), vehicle: other); 100 % of control (dose: 50.0 mg/kg/injection, schedule: Q01DX009 (ip), vehicle: other); 104 % of control (dose: 100.0 mg/kg/injection, schedule: Q01DX009 (ip), vehicle: other); 106 % of control (dose: 200.0 mg/kg/injection, schedule: Q01DX009 (ip), vehicle: other).
As for `CC(C)[NH-].CC(C)[NH-].[Cl][Pt+2]([Cl])([Cl])[Cl]`, the T/C reads like this: (dose: 22.0 mg/kg/injection, schedule: Q01DX009 (ip), vehicle: saline with Tween-80) 155 % of control; (dose: 33.0 mg/kg/injection, schedule: Q01DX009 (ip), vehicle: saline with Tween-80) 165 % of control; under setting [6], 152 % of control.
For the compound `COC1/C=C/O[C@@]2(C)Oc3c(C)c(O)c4c(O)c(cc(O)c4c3C2=O)NC(=O)/C(C)=C\C=C\[C@H](C)C(O)[C@@H](C)[C@@H](O)[C@@H](C)[C@H](OC(C)=O)[C@@H]1C` (some centres undefined), the T/C by setting is: (dose: 6.25 mg/kg/injection, schedule: Q03HX024 (ip), vehicle: saline) 100 % of control; (dose: 12.5 mg/kg/injection, schedule: Q03HX024 (ip), vehicle: saline) 110 % of control; (dose: 25.0 mg/kg/injection, schedule: Q03HX024 (ip), vehicle: saline) 100 % of control; (dose: 50.0 mg/kg/injection, schedule: Q03HX024 (ip), vehicle: saline) 100 % of control; under setting [7], 90 % of control; (dose: 100.0 mg/kg/injection, schedule: Q03HX024 (ip), vehicle: saline) 100 % of control. The T/C reads like this: (dose: 100.0 mg/kg/injection, schedule: Q04DX003 (ip), vehicle: saline sonified) 100 % of control; under setting [8], 109 % of control; (dose: 200.0 mg/kg/injection, schedule: Q04DX003 (ip), vehicle: saline sonified) 100 % of control; (dose: 400.0 mg/kg/injection, schedule: Q01DX009 (ip), vehicle: saline with Tween-80) 118 % of control; (dose: 400.0 mg/kg/injection, schedule: Q04DX003 (ip), vehicle: saline sonified) 109 % of control.
Consider `CC(CCO)CCCO` (centres undefined), for which the T/C by setting is: (dose: 60.0 mg/kg/injection, schedule: Q01DX005 (ip), vehicle: saline with Tween-80) 97 % of control; (dose: 120.0 mg/kg/injection, schedule: Q01DX005 (ip), vehicle: saline with Tween-80) 95 % of control; (dose: 240.0 mg/kg/injection, schedule: Q01DX005 (ip), vehicle: saline with Tween-80) 101 % of control.
`COc1cc(OCc2ccccc2)c(CC(=O)O)c([N+](=O)[O-])c1`: the T/C is, setting by setting: (dose: 100.0 mg/kg/injection, schedule: Q01DX001 (ip), vehicle: saline with Tween-80) 100 % of control; (dose: 200.0 mg/kg/injection, schedule: Q01DX001 (ip), vehicle: saline with Tween-80) 100 % of control; (dose: 400.0 mg/kg/injection, schedule: Q01DX001 (ip), vehicle: saline with Tween-80) 90 % of control.
In the case of `CN(CCN(C)C(=O)CCOS(C)(=O)=O)C(=O)CCOS(C)(=O)=O`, the T/C is 151 % of control under setting [1]; 175 % of control under setting [2]; 192 % of control and 210 % of control under setting [3]; 260 % of control and 290 % of control (dose: 100.0 mg/kg/injection, schedule: Q01DX009 (ip), vehicle: saline); 116 % of control and 297 % of control (dose: 200.0 mg/kg/injection, schedule: Q01DX009 (ip), vehicle: saline).
As to `C=C1C(=O)OC2/C=C(\C)CC/C=C(\C(=O)O)CC/C=C(/C)CCC12` (centres undefined), the T/C was 100 % of control (dose: 5.0 mg/kg/injection, schedule: Q01DX005 (ip), vehicle: Klucel (hydroxypropylcellulose) (HPC)); 117 % of control (dose: 10.0 mg/kg/injection, schedule: Q01DX005 (ip), vehicle: Klucel (hydroxypropylcellulose) (HPC)); 118 % of control (dose: 20.0 mg/kg/injection, schedule: Q01DX005 (ip), vehicle: Klucel (hydroxypropylcellulose) (HPC)); 115 % of control (dose: 40.0 mg/kg/injection, schedule: Q01DX005 (ip), vehicle: Klucel (hydroxypropylcellulose) (HPC)); 115 % of control (dose: 80.0 mg/kg/injection, schedule: Q01DX005 (ip), vehicle: Klucel (hydroxypropylcellulose) (HPC)).
In the case of `C=CC(=O)P(=O)(OCC)OCC`, the T/C (dose: 100.0 mg/kg/injection, schedule: Q04DX002 (ip), vehicle: saline) was 107 % of control; the T/C (dose: 200.0 mg/kg/injection, schedule: Q04DX002 (ip), vehicle: saline) was 103 % of control; the T/C (dose: 400.0 mg/kg/injection, schedule: Q04DX002 (ip), vehicle: saline) was 98 % of control.
In the case of `CN(Cc1cnc2nc(N)[nH]c(=O)c2c1)c1ccc(C(=O)NC(CCC(=O)O)C(=O)O)cc1` (centres undefined), the T/C reads like this: under setting [9], 98 % of control; under setting [10], 100 % of control; under setting [11], 111 % of control.
Take `COc1ccc(OC)c(NC(=O)Oc2c(C)cc(Cl)cc2Br)c1`: the T/C under setting [6] was 97 % of control, the T/C under setting [7] was 99 % of control and the T/C under setting [8] was 100 % of control.
Consider `CN(C)CCC(=O)C(=Cc1ccccc1Cl)C(=O)CCN(C)C`, for which the T/C under setting [4] is 105 % of control; the T/C under setting [5] is 106 % of control; the T/C (dose: 240.0 mg/kg/injection, schedule: Q01DX005 (ip), vehicle: saline) was 105 % of control.
With `Cc1ccc2c(c1)NC(c1cccc(N=Cc3cc(Cl)cc(Cl)c3O)c1)c1cccn1-2` (centres undefined), the T/C runs as follows: under setting [6], 86 % of control; under setting [7], 91 % of control; under setting [8], 96 % of control.
Take `Cc1ccc([Si]23OC(C)CN(CC(C)O2)CC(C)O3)cc1` (centres undefined): the T/C runs as follows: under setting [9], 100 % of control; under setting [10], 109 % of control; under setting [11], 100 % of control.
On to `CCOC(=O)N/N=C/c1ccc[nH]1`, for which the T/C (dose: 1.8 mg/kg/injection, schedule: Q01DX005 (ip), vehicle: saline with Tween-80) is 100 % of control; the T/C (dose: 3.75 mg/kg/injection, schedule: Q01DX005 (ip), vehicle: saline with Tween-80) was 100 % of control; the T/C (dose: 7.5 mg/kg/injection, schedule: Q01DX005 (ip), vehicle: saline with Tween-80) is 101 % of control and 103 % of control.
`Cc1cc(Cl)ccc1NC(=O)C1C(=O)CC(C)(C)CC1=O`: the T/C under setting [9] was 93 % of control, the T/C under setting [10] was 101 % of control and the T/C under setting [11] was 111 % of control.

Source of the values: PubChem BioAssay AID330 (DTP/NCI, 2004).
